Results taken from patent publication US10004724B2, “Compounds alpha v beta 6 integrin antagonists” (GlaxoSmithKline Intellectual Property Development Limited, priority 2014, dated 2018).

Key:
Type in all cases: cell-based
K562-αvβ8 (LAP-b1) = molecular target: T1, K562-αvβ8 (LAP-b1) (Homo sapiens, UniProt P06756+P26012); assay: Cell Adhesion Assay αvβ8; details: K562-αvβ8 cells, ligand LAP-b1, 2 mM MgCl2, BCECF-AM fluorescence; read-out: mean affinity (pIC50) αvβ8 (converted)
T1 construct: expressed in transfected cells; host or cells: K562
Experimental: (§1) The divalent cation used to facilitate adhesion was 2 mM MgCl2. Adhesion was quantified by cell labelling with the fluorescent dye BCECF-AM (Life Technologies), where cell suspensions at 3×10^6 cells/mL were incubated with 0.33 mL/mL of 30 mM BCECF-AM at 37° C. for 10 minutes, before dispensing into the assay plate. At the assay conclusion cells that adhered were lysed using 50 μL/well of 0.5% Triton X-100 in H2O to release fluorescence. Fluorescence intensity was detected using an Envision® plate reader (Perkin Elmer).

K562-αvβ6 (LAP-b1) = molecular target: T2, K562-αvβ6 (LAP-b1) (Homo sapiens, UniProt P06756+P18564); assay: Cell Adhesion Assay αvβ6; details: K562-αvβ6 cells, ligand LAP-b1, 2 mM MgCl2, BCECF-AM fluorescence; read-out: mean affinity (pIC50) αvβ6 (converted)
T2 construct: expressed in transfected cells; host or cells: K562
Experimental: as §1

K562-αvβ3 (LAP-b1) = molecular target: T3, K562-αvβ3 (LAP-b1) (Homo sapiens, UniProt P05106+P06756); assay: Cell Adhesion Assay αvβ3; details: K562-αvβ3 cells, ligand LAP-b1, 2 mM MgCl2, BCECF-AM fluorescence; read-out: mean affinity (pIC50) αvβ3 (converted)
T3 construct: expressed in transfected cells; host or cells: K562
Experimental: as §1

K562-αvβ5 (Vitronectin) = molecular target: T4, K562-αvβ5 (Vitronectin) (Homo sapiens, UniProt P06756+P18084); assay: Cell Adhesion Assay αvβ5; details: K562-αvβ5 cells, ligand Vitronectin, 2 mM MgCl2, BCECF-AM fluorescence; read-out: mean affinity (pIC50) αvβ5 (converted)
T4 construct: expressed in transfected cells; host or cells: K562
Experimental: as §1

αvβ1 = αvβ1 (Homo sapiens, UniProt P05556+P06756); assay: Cell Adhesion Assay αvβ1; details: cell line and ligand for αvβ1 not listed in method, read-out: mean affinity (pIC50) αvβ1 (converted)

T3 sequence (P06756 31-889 limits assumed): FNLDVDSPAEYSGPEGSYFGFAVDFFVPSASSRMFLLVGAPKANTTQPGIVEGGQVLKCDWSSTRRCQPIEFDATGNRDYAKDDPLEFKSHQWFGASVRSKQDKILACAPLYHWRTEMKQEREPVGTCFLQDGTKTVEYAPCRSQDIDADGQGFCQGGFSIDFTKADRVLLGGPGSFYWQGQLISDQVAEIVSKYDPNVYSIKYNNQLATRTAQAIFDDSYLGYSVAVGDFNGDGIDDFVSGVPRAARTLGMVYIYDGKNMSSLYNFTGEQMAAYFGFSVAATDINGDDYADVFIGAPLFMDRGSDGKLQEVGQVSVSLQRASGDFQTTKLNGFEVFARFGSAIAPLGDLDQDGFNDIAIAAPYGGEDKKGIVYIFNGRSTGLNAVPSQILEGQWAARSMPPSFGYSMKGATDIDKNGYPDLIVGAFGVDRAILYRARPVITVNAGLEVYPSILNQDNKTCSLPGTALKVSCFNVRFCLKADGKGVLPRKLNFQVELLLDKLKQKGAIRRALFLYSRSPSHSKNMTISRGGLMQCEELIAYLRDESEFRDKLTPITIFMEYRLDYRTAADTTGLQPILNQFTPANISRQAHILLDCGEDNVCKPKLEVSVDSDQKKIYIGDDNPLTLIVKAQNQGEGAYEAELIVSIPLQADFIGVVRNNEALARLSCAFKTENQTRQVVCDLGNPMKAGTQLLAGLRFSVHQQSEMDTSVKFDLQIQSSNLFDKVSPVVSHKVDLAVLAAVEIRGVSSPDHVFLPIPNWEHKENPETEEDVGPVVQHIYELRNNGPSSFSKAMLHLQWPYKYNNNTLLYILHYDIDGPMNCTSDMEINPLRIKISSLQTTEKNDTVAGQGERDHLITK
T3 sequence (P06756 891-1048 limits assumed): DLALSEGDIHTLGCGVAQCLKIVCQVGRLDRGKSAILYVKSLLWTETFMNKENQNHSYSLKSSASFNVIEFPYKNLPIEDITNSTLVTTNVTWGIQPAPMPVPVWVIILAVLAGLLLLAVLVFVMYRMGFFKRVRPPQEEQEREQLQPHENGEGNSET
T3 sequence (P05106 27-788): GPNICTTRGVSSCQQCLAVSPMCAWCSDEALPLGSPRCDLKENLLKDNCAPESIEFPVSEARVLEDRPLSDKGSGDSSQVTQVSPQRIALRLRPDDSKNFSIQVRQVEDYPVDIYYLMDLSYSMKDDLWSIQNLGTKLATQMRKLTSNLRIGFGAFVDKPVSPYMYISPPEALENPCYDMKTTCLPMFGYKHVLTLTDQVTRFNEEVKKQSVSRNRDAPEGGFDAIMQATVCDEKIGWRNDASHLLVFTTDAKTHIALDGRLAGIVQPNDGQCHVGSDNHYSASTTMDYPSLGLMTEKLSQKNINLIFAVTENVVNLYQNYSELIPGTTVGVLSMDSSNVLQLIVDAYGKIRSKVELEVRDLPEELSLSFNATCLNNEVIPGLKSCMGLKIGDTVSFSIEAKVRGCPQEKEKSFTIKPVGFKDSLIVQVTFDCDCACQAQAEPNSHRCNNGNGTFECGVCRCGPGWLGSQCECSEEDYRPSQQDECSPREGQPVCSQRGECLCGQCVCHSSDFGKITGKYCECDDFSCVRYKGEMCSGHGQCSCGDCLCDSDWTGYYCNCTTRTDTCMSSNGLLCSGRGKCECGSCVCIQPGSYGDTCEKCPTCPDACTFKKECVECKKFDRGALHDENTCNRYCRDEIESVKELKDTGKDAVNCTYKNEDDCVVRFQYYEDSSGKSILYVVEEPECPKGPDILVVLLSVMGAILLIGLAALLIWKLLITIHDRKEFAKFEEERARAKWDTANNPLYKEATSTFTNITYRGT
T4 sequence (P06756 31-889 limits assumed): as the sequence (P06756 31-889 limits assumed) above
T4 sequence (P06756 891-1048 limits assumed): as the sequence (P06756 891-1048 limits assumed) above
T4 sequence (P18084 24-799): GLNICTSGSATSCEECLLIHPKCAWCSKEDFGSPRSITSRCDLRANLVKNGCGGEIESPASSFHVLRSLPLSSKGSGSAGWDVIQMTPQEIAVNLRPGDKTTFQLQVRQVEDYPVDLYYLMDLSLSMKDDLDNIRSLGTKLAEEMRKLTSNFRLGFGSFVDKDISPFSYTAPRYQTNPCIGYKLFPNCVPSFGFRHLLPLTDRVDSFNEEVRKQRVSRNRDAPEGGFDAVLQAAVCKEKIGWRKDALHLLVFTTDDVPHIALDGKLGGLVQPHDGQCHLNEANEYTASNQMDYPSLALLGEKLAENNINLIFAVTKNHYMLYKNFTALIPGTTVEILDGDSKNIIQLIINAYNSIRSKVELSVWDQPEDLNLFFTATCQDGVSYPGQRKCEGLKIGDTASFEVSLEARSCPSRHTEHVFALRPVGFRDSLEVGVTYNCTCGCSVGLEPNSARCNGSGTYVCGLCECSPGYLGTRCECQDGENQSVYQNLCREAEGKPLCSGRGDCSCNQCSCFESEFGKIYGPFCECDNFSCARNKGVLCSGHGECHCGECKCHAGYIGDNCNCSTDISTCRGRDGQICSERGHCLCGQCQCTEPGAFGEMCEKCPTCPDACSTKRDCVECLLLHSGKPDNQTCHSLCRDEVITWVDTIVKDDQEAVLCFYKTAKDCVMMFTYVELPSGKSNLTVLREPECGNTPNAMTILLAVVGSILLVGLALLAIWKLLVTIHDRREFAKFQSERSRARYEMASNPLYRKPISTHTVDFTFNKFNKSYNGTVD
T2 sequence (P06756 31-889 limits assumed): as the sequence (P06756 31-889 limits assumed) above
T2 sequence (P06756 891-1048 limits assumed): as the sequence (P06756 891-1048 limits assumed) above
T2 sequence (P18564 22-788): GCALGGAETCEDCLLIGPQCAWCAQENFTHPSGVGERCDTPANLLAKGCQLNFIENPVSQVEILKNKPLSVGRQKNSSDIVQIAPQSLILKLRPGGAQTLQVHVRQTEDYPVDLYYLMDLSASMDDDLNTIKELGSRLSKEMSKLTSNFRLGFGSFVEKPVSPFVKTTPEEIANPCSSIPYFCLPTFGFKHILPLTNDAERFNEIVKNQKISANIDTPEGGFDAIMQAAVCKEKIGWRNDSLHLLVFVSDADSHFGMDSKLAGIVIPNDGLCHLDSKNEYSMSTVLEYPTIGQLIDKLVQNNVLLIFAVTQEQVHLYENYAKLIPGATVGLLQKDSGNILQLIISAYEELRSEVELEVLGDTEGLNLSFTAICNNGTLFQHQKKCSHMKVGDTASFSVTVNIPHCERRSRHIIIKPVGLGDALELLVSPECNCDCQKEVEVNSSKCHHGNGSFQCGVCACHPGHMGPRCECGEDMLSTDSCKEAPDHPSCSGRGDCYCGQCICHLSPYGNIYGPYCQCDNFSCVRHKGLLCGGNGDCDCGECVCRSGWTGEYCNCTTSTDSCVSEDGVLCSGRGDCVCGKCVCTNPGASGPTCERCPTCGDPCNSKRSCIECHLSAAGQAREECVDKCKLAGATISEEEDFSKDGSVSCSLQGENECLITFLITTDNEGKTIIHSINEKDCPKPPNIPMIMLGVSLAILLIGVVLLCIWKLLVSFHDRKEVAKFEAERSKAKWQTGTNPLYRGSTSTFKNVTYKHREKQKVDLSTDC
T1 sequence (P06756 31-889 limits assumed): as the sequence (P06756 31-889 limits assumed) above
T1 sequence (P06756 891-1048 limits assumed): as the sequence (P06756 891-1048 limits assumed) above
T1 sequence (P26012 43-769): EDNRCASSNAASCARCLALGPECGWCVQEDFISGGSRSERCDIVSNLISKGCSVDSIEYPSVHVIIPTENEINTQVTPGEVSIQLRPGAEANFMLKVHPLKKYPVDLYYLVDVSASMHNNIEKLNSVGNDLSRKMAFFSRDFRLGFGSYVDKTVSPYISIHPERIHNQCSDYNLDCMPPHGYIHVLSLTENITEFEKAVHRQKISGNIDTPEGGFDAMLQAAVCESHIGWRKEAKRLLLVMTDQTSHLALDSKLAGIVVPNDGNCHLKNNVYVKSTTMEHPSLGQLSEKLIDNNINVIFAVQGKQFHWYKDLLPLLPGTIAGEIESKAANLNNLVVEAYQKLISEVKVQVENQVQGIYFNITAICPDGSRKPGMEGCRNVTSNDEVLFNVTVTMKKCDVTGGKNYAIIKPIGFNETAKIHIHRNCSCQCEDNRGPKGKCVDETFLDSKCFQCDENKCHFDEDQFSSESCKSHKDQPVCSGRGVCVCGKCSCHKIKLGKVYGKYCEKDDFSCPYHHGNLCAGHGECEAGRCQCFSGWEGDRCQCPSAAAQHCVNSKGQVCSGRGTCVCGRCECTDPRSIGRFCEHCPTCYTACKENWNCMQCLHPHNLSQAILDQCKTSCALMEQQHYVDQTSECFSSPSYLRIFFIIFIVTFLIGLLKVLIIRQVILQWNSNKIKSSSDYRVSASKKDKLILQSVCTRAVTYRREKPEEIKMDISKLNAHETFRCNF

Row | Compound | IC50 (K562-αvβ8 (LAP-b1)) | IC50 (K562-αvβ6 (LAP-b1)) | IC50 (K562-αvβ3 (LAP-b1)) | IC50 (K562-αvβ5 (Vitronectin)) | IC50 (αvβ1)
1 | Cc1cc(-c2cc([C@H](CC(=O)O)CN3CC[C@@H](CCc4ccc5c(n4)NCCC5)C3)cc(N3CCOCC3)c2)[nH]n1 [Example 7, (S)-3-(3-(3-Methyl-1H-pyrazol-5-yl)-5-morpholinophenyl)-4-((R)-3-(2-(5,6,7,8-tetrahydro-1,8-naphthyridin-2-yl)ethyl)pyrrolidin-1-yl)butanoic acid] | 25.1 nM | 10 nM | 2000 nM | 200 nM | –
2 | Cc1ccn(-c2cc(C(CC(=O)O)CN3CC[C@@H](CCc4ccc5c(n4)NCCC5)C3)cc(N3CCOCC3)c2)n1 (mixture of isomers) [Example 4, 3-(3-(3-methyl-1H-pyrazol-1-yl)-5-morpholinophenyl)-4-((R)-3-(2-(5,6,7,8-tetrahydro-1,8-naphthyridin-2-yl)ethyl)pyrrolidin-1-yl)butanoic acid] | 31.6 nM | – | 6310 nM | 158 nM | –
3 | O=C(O)C[C@H](CN1CC[C@@H](CCc2ccc3c(n2)NCCC3)C1)c1cc(-c2cn[nH]c2)cc(N2CCOCC2)c1 [Example 8, (S)-3-(3-Morpholino-5-(1H-pyrazol-4-yl)phenyl)-4-((R)-3-(2-(5,6,7,8-tetrahydro-1,8-naphthyridin-2-yl)ethyl)pyrrolidin-1-yl)butanoic acid] | 5.01 nM | 5.01 nM | 3980 nM | 63.1 nM | –
4 | O=C(O)C[C@H](CN1CC[C@@H](CCc2ccc3c(n2)NCCC3)C1)c1cc(N2CCOCC2)cc(-n2cccn2)c1 [Example 3, (S)-3-(3-morpholino-5-(1H-pyrazol-1-yl)phenyl)-4-((R)-3-(2-(5,6,7,8-tetrahydro-1,8-naphthyridin-2-yl)ethyl)pyrrolidin-1-yl)butanoic acid] | 15.8 nM | 3.16 nM | 3980 nM | 200 nM | 50.1 nM
5 | O=C(O)C[C@H](CN1CC[C@@H](CCc2ccc3c(n2)NCCC3)C1)c1cc(-c2ccn[nH]2)cc(N2CCOCC2)c1 [Example 6, (S)-3-(3-Morpholino-5-(1H-pyrazol-5-yl)phenyl)-4-((R)-3-(2-(5,6,7,8-tetrahydro-1,8-naphthyridin-2-yl)ethyl)pyrrolidin-1-yl)butanoic acid] | 7.94 nM | 3.16 nM | 1260 nM | 50.1 nM | 10 nM
